Measured values from patent US20030036111A1, “Mitochondrial protein” (priority 2001, published 2003).
Entries after “also recorded” stand apart in the source; their conditions may differ.

Experiments:
Format in all cases: biochemical
[1] = target: T1, human DNC (mitochondrial deoxynucleotide carrier) (Homo sapiens, UniProt Q9HC21); test: Inhibition of [α-35S]dATP uptake (dATP/ADP exchange) by external substrates and carrier inhibitors; details: for Ki, competitive inhibition of [α-35 S]dATP uptake by external substrate: internal ADP or dADP 10 mM; for Ki: read-out: Ki, competitive inhibition of [α-35 S]dATP uptake by external substrate
T1 construct: Amino acids are numbered from 1-320; made in house; host or cells: E. coli BL21(DE3), pET21b; inclusion bodies solubilized in sarkosyl, Ni-NTA purified
T1 sequence (Q9HC21 2-320 limits assumed): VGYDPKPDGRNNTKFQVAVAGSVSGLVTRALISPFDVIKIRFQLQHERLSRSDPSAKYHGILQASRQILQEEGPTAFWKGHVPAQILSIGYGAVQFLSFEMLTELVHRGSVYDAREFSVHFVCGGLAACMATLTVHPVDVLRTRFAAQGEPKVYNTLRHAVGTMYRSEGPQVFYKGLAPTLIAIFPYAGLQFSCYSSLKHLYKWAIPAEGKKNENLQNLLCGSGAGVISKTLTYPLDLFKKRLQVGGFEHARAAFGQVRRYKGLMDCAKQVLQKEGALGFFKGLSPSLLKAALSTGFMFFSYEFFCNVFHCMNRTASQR

[2] = target: T1, human DNC (mitochondrial deoxynucleotide carrier); test: Dependence of DNC activity ([α-35S]dATP uptake) on internal substrate; details: internal substrate 10 mM; for rate of [α-35 S]dATP uptake into proteoliposomes with internal substrate: 2 min
Protocol: FIG. 3. Time course of dATP/ADP exchange and substrate specificity of human DNC. (a) Time course of [α-35 S]dATP/ADP exchange in proteoliposomes reconstituted with the recombinant DNC. [α-35 S]dATP (1 mM) was added to proteoliposomes containing 10 mM ADP (⋄) or 10 mM NaCl (∇). (b) Dependence of DNC activity on internal substrate. Proteoliposomes were preloaded internally with various substrates (concentration 10 mM). Trans-port was started by addition of […] [α-35 S]dATP and stopped after 2 min. The values are means 6 SD of at least three experiments. (c) Inhibition of the rate of [α-35 S]dATP uptake by external substrates. Proteoliposomes were preloaded internally with 10 mM ADP. […] External substrates (concentration 0.5 mM) were added together with [α-35 S]dATP. The extents of inhibition (%) from a representative experiment are reported.
(§1) The recombinant protein in sarkosyl was reconstituted into liposomes in the presence of substrates (10). […] Transport was measured at 25° C. with internal and external pHs at 6.8. It was started by adding [α-35S]dATP or [^14C]-ADP and terminated after 2 min by addition of 100 mM of p-chloromercuribenzene sulfonate (10). Entrapped radioactivity was counted (10). The initial transport rate was calculated from the radioactivity taken up by proteoliposomes within 2 min (in the initial linear range). Other transport activities were assayed similarly (10).

[3] = target: T1, human DNC (mitochondrial deoxynucleotide carrier); test: Inhibition of [α-35S]dATP uptake (dATP/ADP exchange) by external substrates and carrier inhibitors; details: external substrates 0.5 mM; internal 10 mM ADP; 125 mM [α-35 S]dATP; 2 min
Protocol: FIG. 3. Time course of dATP/ADP exchange and substrate specificity of human DNC. (a) Time course of [α-35 S]dATP/ADP exchange in proteoliposomes reconstituted with the recombinant DNC. [α-35 S]dATP (1 mM) was added to proteoliposomes containing 10 mM ADP (⋄) or 10 mM NaCl (∇). (b) Dependence of DNC activity on internal substrate. Proteoliposomes were preloaded internally with various substrates (concentration 10 mM). Trans-port was started by addition of […] [α-35 S]dATP and stopped after 2 min. The values are means 6 SD of at least three experiments. (c) Inhibition of the rate of [α-35 S]dATP uptake by external substrates. Proteoliposomes were preloaded internally with 10 mM ADP. Transport was started by adding […] [α-35 S]dATP and stopped after 2 min. External substrates (concentration 0.5 mM) were added together with [α-35 S]dATP. The extents of inhibition (%) from a representative experiment are reported.
The recombinant protein in sarkosyl was reconstituted into liposomes in the presence of substrates (10). Both cardiolipin (1.14 mg/ml) and EDTA (1 mM) were added. Transport was measured at 25° C. with internal and external pHs at 6.8. It was started by adding [α-35S]dATP or [^14C]-ADP and terminated after 2 min by addition of 100 mM of p-chloromercuribenzene sulfonate (10). Entrapped radioactivity was counted (10). The initial transport rate was calculated from the radioactivity taken up by proteoliposomes within 2 min (in the initial linear range). Other transport activities were assayed similarly (10).

[4] = target: T1, human DNC (mitochondrial deoxynucleotide carrier); test: Homo-exchange of other carrier substrates in DNC proteoliposomes; details: internal concentration 10 mM; external concentration 1 mM
Protocol: as §1

[5] = inhibitor 2 mM, internal 10 mM ADP, 2 min
[6] = inhibitor 10 mM, internal 10 mM ADP, 2 min
[7] = inhibitor 0.1 mM, internal 10 mM ADP, 2 min

rate of [α-35 S]dATP uptake into proteoliposomes with internal substrate [2] | effect of external substrate on [α-35 S]dATP/ADP exchange [3] | Compound | further results
virtually no activity | no effect | Nc1ccn([C@@H]2O[C@H](CO)[C@@H](O)[C@H]2O)c(=O)n1 [cytidine] | 
virtually no activity | no effect | Nc1cc[nH]c(=O)n1 [cytosine] | 
virtually no activity | no effect | Nc1ncnc2c1ncn2[C@H]1C[C@H](O)[C@@H](CO)O1 [deoxyadenosine] | 
virtually no activity | no effect | Nc1ccn([C@H]2C[C@H](O)[C@@H](CO)O2)c(=O)n1 [deoxycytidine] | 
virtually no activity | no effect | Nc1nc2c(ncn2[C@H]2C[C@H](O)[C@@H](CO)O2)c(=O)[nH]1 [deoxyguanosine] | 
virtually no activity | no effect | Cc1cn([C@H]2C[C@H](O)[C@@H](CO)O2)c(=O)[nH]c1=O [deoxythymidine] | 
virtually no activity | no effect | O=c1ccn([C@H]2C[C@H](O)[C@@H](CO)O2)c(=O)[nH]1 [deoxyuridine] | 
virtually no activity |  | NCC(=O)O [glycine] | 
virtually no activity | no effect | Nc1nc2nc[nH]c2c(=O)[nH]1 [guanine] | 
virtually no activity | no effect | Nc1nc2c(ncn2[C@@H]2O[C@H](CO)[C@@H](O)[C@H]2O)c(=O)[nH]1 [guanosine] | 
virtually no activity | no effect | Cc1c[nH]c(=O)[nH]c1=O [thymine] | 
virtually no activity | no effect | O=c1cc[nH]c(=O)[nH]1 [uracil] | 
virtually no activity | no effect | O=c1ccn([C@@H]2O[C@H](CO)[C@@H](O)[C@H]2O)c(=O)[nH]1 [uridine] | 
virtually no activity |  | phosphate | 

More lines, now with the values behind:

Compound | rate of [α-35 S]dATP uptake into proteoliposomes with internal substrate [2] | effect of external substrate on [α-35 S]dATP/ADP exchange [3] | further results
O=C(O)c1cccc(C(=O)O)c1C(=O)O [1,2,3-benzenetricarboxylate] |  |  | dATP/ADP exchange rate reduced to (remaining rate) [1, 5]: 40%
Nc1ncnc2c1ncn2[C@@H]1O[C@H](COP(=O)(O)OP(=O)(O)OP(=O)(O)O)[C@@H](O)[C@H]1O [ATP] | lower rate |  | 
Nc1ccn([C@@H]2O[C@H](COP(=O)(O)OP(=O)(O)O)[C@@H](O)[C@H]2O)c(=O)n1 [CDP] | significant activities |  | 
Nc1nc2c(ncn2[C@@H]2O[C@H](COP(=O)(O)OP(=O)(O)O)[C@@H](O)[C@H]2O)c(=O)[nH]1 [GDP] | significant activities; also recorded: rather poorly |  | 
CCN1C(=O)C=CC1=O [N-ethylmaleimide] |  |  | inhibition of uptake of [α-35 S]dATP [1, 5]: No significant inhibition
NC(=O)C1=CN([C@@H]2O[C@H](COP(=O)(O)OP(=O)(O)OC[C@H]3O[C@@H](n4cnc5c(N)ncnc54)[C@H](O)[C@@H]3O)[C@@H](O)[C@H]2O)C=CC1 [NADH] | virtually no activity |  | 
O=c1ccn([C@@H]2O[C@H](COP(=O)(O)OP(=O)(O)O)[C@@H](O)[C@H]2O)c(=O)[nH]1 [UDP] | significant activities |  | 
N#CC(=Cc1ccc(O)cc1)C(=O)O [a-cyano-4-hydroxycinnamate] |  |  | inhibition of uptake of [α-35 S]dATP [1, 5]: No significant inhibition
Nc1ncnc2nc[nH]c12 [adenine] | virtually no activity | no effect | 
Nc1ncnc2c1ncn2[C@@H]1O[C@H](CO)[C@@H](O)[C@H]1O [adenosine] | virtually no activity | no effect | 
c1ccc(-c2ccnc3c2ccc2c(-c4ccccc4)ccnc23)cc1 [bathophenathroline] |  |  | inhibition of uptake of [α-35 S]dATP [1, 6]: 41%
CO[C@H](C/C=C\C=C\CC/C=C/C[C@H](C)/C=C/C(=C\C(=O)O)CC(=O)O)/C(C)=C\C=C(/C)C(=O)O [bongkrekate] |  |  | inhibition of uptake of [α-35 S]dATP ([1]; inhibitor 0.01 mM, internal 10 mM ADP, 2 min): 37%
CCCCC(C(=O)O)C(=O)O [butylmalonate] |  |  | inhibition of uptake of [α-35 S]dATP [1, 5]: No significant inhibition
C=C1[C@@H]2CC[C@H]3[C@]4(C)C[C@H](O[C@@H]5O[C@H](CO)[C@@H](OS(=O)(=O)O)[C@H](OS(=O)(=O)O)[C@H]5OC(=O)CC(C)C)CC(C(=O)O)(C(=O)O)[C@H]4CC[C@]3(C2)[C@H]1O [carboxyatractyloside] |  |  | inhibition of uptake of [α-35 S]dATP [1, 7]: 42%
O=C(O)CC(O)(CC(=O)O)C(=O)O [citrate] | virtually no activity |  | 
C=C1[C@@H](C)[C@H]2[C@H](Cc3ccccc3)NC(=O)[C@]23OC(=O)/C=C/[C@H](O)CCC[C@@H](C)C/C=C/[C@H]3[C@@H]1O [cytochalasin B] |  |  | inhibition of uptake of [α-35 S]dATP ([1]; inhibitor 0.033 mM, internal 10 mM ADP, 2 min): No significant inhibition
O=c1ccn([C@H]2C[C@H](O)[C@@H](COP(=O)(O)OP(=O)(O)O)O2)c(=O)[nH]1 [dUDP] |  |  | Ki, competitive inhibition of [α-35 S]dATP uptake by external substrate [1]: higher
O=c1ccn([C@H]2C[C@H](O)[C@@H](COP(=O)(O)OP(=O)(O)OP(=O)(O)O)O2)c(=O)[nH]1 [dUTP] |  |  | Ki, competitive inhibition of [α-35 S]dATP uptake by external substrate [1]: higher
Nc1ncnc2c1ncn2[C@H]1CC[C@@H](COP(=O)(O)OP(=O)(O)OP(=O)(O)O)O1 [ddATP] |  |  | Ki [1]: 25 µM
Nc1ccn([C@H]2CC[C@@H](COP(=O)(O)OP(=O)(O)OP(=O)(O)O)O2)c(=O)n1 [ddCTP] |  |  | Ki [1]: 70 µM
O=C(O)/C=C/C(=O)O [fumarate] |  |  | homo-exchange catalysed by reconstituted DNC [4]: did not catalyse
O=S(=O)([O-])c1cc[c]([Hg][Cl])cc1 [p-chloromercuribenzene sulfonate] |  |  | inhibition of uptake of [α-35 S]dATP [1, 7]: completely
O=C(O)CC(C(=O)O)c1ccccc1 (stereo not shown) [phenylsuccinate] |  |  | inhibition of uptake of [α-35 S]dATP [1, 5]: No significant inhibition
Cc1ncc(COP(=O)(O)O)c(C=O)c1O [pyridoxal 5′-phosphate] |  |  | inhibition of uptake of [α-35 S]dATP [1, 6]: completely
O=P(O)(O)OP(=O)(O)O [pyrophosphate] | much lower activities |  | exchange relative to ADP exchange ([2]; [α-35 S]dATP uptake): 22%
dADP | highest rates |  | 
